# Laboratory results reported in patent publication US9561249B2, “Pharmaceutical formulations of nitrite and uses thereof” (TheraVasc Inc., priority 2013, dated 2017).
# Where two headings read alike, the source gives them in different places.
# Test system: subjects with PAD
# Settings: for Blood Pressure diastolic, Supine (Mean) / Blood Pressure systolic, Supine (Mean) / Pulse, Supine (Mean) / Blood Pressure diastolic, Standing (Mean) / Blood Pressure systolic, Standing (Mean) / Diastolic BP, Orthostatic Changes / Pulse, Orthostatic Changes / Pulse, Standing (Mean) / Systolic BP, Orthostatic Changes: 80-mg group
# Procedure: Supine vital signs were measured at the Screening Visit. The subject rested in a supine position for a minimum of 3 minutes prior to obtaining vital sign measurements. Vital signs included BP and pulse rate. Postural vital signs, including both supine and standing measurements of blood pressure and pulse rate, were recorded at all study visits following the first dose of IP administration. Measurements were performed as follows: (1) the subject rested in a supine position for a minimum of 3 minutes, (2) vital signs (BP and pulse rate) were measured while the subject was supine, (3) the subject assumed a standing position for a minimum of 5 minutes, and (4) vital signs (BP and pulse rate) were measured while the subject was standing.
# [1] = Visit 8 (6 days after dose doubling)
structure (smiles),measurement,setting,value
O=NO [sodium nitrite],"Blood Pressure diastolic, Supine (Mean)",Screening (baseline),69.4
same,"Blood Pressure systolic, Supine (Mean)",Screening (baseline),132.4
same,"Pulse, Supine (Mean)",Screening (baseline),63.9
same,"Blood Pressure diastolic, Standing (Mean)",Visit 1 (Day 0),70.2
same,"Blood Pressure diastolic, Supine (Mean)",Visit 1 (Day 0),68.4
same,"Blood Pressure systolic, Standing (Mean)",Visit 1 (Day 0),125.4
same,"Blood Pressure systolic, Supine (Mean)",Visit 1 (Day 0),129.8
same,"Diastolic BP, Orthostatic Changes",Visit 1 (Day 0),1.8
same,"Pulse, Orthostatic Changes",Visit 1 (Day 0),6.9
same,"Pulse, Standing (Mean)",Visit 1 (Day 0),72.6
same,"Pulse, Supine (Mean)",Visit 1 (Day 0),65.6
same,"Systolic BP, Orthostatic Changes",Visit 1 (Day 0),−4.4
same,"Blood Pressure diastolic, Standing (Mean)",Visit 2 (Day 1),71.9
same,"Blood Pressure diastolic, Supine (Mean)",Visit 2 (Day 1),66.7
same,"Blood Pressure systolic, Standing (Mean)",Visit 2 (Day 1),123.1
same,"Blood Pressure systolic, Supine (Mean)",Visit 2 (Day 1),122.8
same,"Diastolic BP, Orthostatic Changes",Visit 2 (Day 1),5.2
same,"Pulse, Orthostatic Changes",Visit 2 (Day 1),7.3
same,"Pulse, Standing (Mean)",Visit 2 (Day 1),72.3
same,"Pulse, Supine (Mean)",Visit 2 (Day 1),65.1
same,"Systolic BP, Orthostatic Changes",Visit 2 (Day 1),0.3
same,"Blood Pressure diastolic, Standing (Mean)",Visit 3 (Day 4),69.2
same,"Blood Pressure diastolic, Supine (Mean)",Visit 3 (Day 4),66.7
same,"Blood Pressure systolic, Standing (Mean)",Visit 3 (Day 4),124.8
same,"Blood Pressure systolic, Supine (Mean)",Visit 3 (Day 4),127.1
same,"Diastolic BP, Orthostatic Changes",Visit 3 (Day 4),2.5
same,"Pulse, Orthostatic Changes",Visit 3 (Day 4),6.2
same,"Pulse, Standing (Mean)",Visit 3 (Day 4),72.9
same,"Pulse, Supine (Mean)",Visit 3 (Day 4),66.7
same,"Systolic BP, Orthostatic Changes",Visit 3 (Day 4),−2.3
same,"Blood Pressure diastolic, Standing (Mean)",Visit 4 (Day 14),68.8
same,"Blood Pressure diastolic, Supine (Mean)",Visit 4 (Day 14),65.2
same,"Blood Pressure systolic, Standing (Mean)",Visit 4 (Day 14),123.7
same,"Blood Pressure systolic, Supine (Mean)",Visit 4 (Day 14),125.1
same,"Diastolic BP, Orthostatic Changes",Visit 4 (Day 14),3.5
same,"Pulse, Orthostatic Changes",Visit 4 (Day 14),7.9
same,"Pulse, Standing (Mean)",Visit 4 (Day 14),72.6
same,"Pulse, Supine (Mean)",Visit 4 (Day 14),64.6
same,"Systolic BP, Orthostatic Changes",Visit 4 (Day 14),−1.4
same,"Blood Pressure diastolic, Standing (Mean)",Visit 5 (Day 28),71.9
same,"Blood Pressure diastolic, Supine (Mean)",Visit 5 (Day 28),68.9
same,"Blood Pressure systolic, Standing (Mean)",Visit 5 (Day 28),119.5
same,"Blood Pressure systolic, Supine (Mean)",Visit 5 (Day 28),124.6
same,"Diastolic BP, Orthostatic Changes",Visit 5 (Day 28),3.0
same,"Pulse, Orthostatic Changes",Visit 5 (Day 28),3.8
same,"Pulse, Standing (Mean)",Visit 5 (Day 28),72.5
same,"Pulse, Supine (Mean)",Visit 5 (Day 28),68.7
same,"Systolic BP, Orthostatic Changes",Visit 5 (Day 28),−5.2
same,"Blood Pressure diastolic, Standing (Mean)",Visit 6 (Day 70),70.0
same,"Blood Pressure diastolic, Supine (Mean)",Visit 6 (Day 70),66.2
same,"Blood Pressure systolic, Standing (Mean)",Visit 6 (Day 70),124.8
same,"Blood Pressure systolic, Supine (Mean)",Visit 6 (Day 70),123.1
same,"Diastolic BP, Orthostatic Changes",Visit 6 (Day 70),3.8
same,"Pulse, Orthostatic Changes",Visit 6 (Day 70),2.1
same,"Pulse, Standing (Mean)",Visit 6 (Day 70),67.6
same,"Pulse, Supine (Mean)",Visit 6 (Day 70),65.5
same,"Systolic BP, Orthostatic Changes",Visit 6 (Day 70),1.6
same,"Blood Pressure diastolic, Standing (Mean)","Visit 7 (Day 71, dose doubled)",67.1
same,"Blood Pressure diastolic, Supine (Mean)","Visit 7 (Day 71, dose doubled)",64.4
same,"Blood Pressure systolic, Standing (Mean)","Visit 7 (Day 71, dose doubled)",123.3
same,"Blood Pressure systolic, Supine (Mean)","Visit 7 (Day 71, dose doubled)",118.4
same,"Diastolic BP, Orthostatic Changes","Visit 7 (Day 71, dose doubled)",2.7
same,"Pulse, Orthostatic Changes","Visit 7 (Day 71, dose doubled)",6.1
same,"Pulse, Standing (Mean)","Visit 7 (Day 71, dose doubled)",70.4
same,"Pulse, Supine (Mean)","Visit 7 (Day 71, dose doubled)",64.3
same,"Systolic BP, Orthostatic Changes","Visit 7 (Day 71, dose doubled)",4.8
same,"Blood Pressure diastolic, Standing (Mean)",[1],67.9
same,"Blood Pressure diastolic, Supine (Mean)",[1],66.9
same,"Blood Pressure systolic, Standing (Mean)",[1],117.7
same,"Blood Pressure systolic, Supine (Mean)",[1],120.7
same,"Diastolic BP, Orthostatic Changes",[1],1.0
same,"Pulse, Orthostatic Changes",[1],4.3
same,"Pulse, Standing (Mean)",[1],72.6
same,"Pulse, Supine (Mean)",[1],68.3
same,"Systolic BP, Orthostatic Changes",[1],−3.0
same,Hypotensive effects,"treated groups, 40 and 80 mg BID",Dose dependent hypotensive affects were observed
